# Source: article PMC12633754, “Elastase inhibition by natural flavonoids: mechanistic insights and potential therapeutic applications” (Frontiers in Nutrition, 2025)
# Tests used:
# [1] = target: T1, porcine pancreatic elastase (PPE) (Sus scrofa, UniProt P00772); assay: Elastase inhibition assay, fluorescent substrate MeOSuc-Ala-Ala-Pro-Val-AMC; format: biochemical; settings: for IC50: 298 K; for inhibition at 22.5 µM: read-out: Inhibition rate of PPE
# T1 construct: purchased Sigma-Aldrich (St. Louis, MO, United States)
# T1 sequence (P00772 27-266): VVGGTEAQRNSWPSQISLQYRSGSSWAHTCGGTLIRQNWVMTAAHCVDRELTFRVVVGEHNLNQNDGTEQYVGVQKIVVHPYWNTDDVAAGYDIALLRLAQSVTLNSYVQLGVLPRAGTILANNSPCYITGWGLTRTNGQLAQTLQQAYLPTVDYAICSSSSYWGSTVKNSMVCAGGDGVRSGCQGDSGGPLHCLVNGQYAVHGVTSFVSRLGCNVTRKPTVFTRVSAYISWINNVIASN
# Method: Elastase was selected as the enzyme target and MeOSuc-Ala-Ala-Pro-Val-AMC as the substrate for the enzymatic reaction. According to the principle of enzyme reactions, an in vitro target enzyme drug screening model was established by measuring the relative fluorescence intensity for drug screening and evaluation. The inhibition rate was measured using a FlexStation3 multifunctional plate reader (Molecular Devices, Shanghai, China). Elastase solution (50 μL, 5 × 10^−7 mol/L) was mixed with a fluorescent substrate (50 μL, 2 × 10^−5 mol/L), and Tris–HCl buffer solution was added to obtain a total volume of 200 μL. […] The excitation wavelength was adjusted to 380 nm, and the emission wavelength was recorded in the range 420–540 nm. A 200 μL buffer solution was used as the blank for reference. The relative fluorescence values of pure enzyme activity were recorded. Four monomer solutions of the same concentration were added separately and their relative fluorescence values were measured under the same conditions. The concentration of each monomer was varied in different samples to obtain IC50 values. Inhibition rate (%) was calculated as follows:
# Inhibition rate(%)=RFUPPE−RFUDrugs+PPE/RFUPPE×100% (1)
# where the relative fluorescence unit (RFU) PPE refers to the relative fluorescence measured when only PPE and the fluorescent substrate are present without any inhibitors, and RFU Drugs+PPE refers to the relative fluorescence measured when both PPE and the test drug inhibitor are present.
# [2] = target: T1, porcine pancreatic elastase (PPE); assay: Intrinsic fluorescence quenching of PPE: Stern-Volmer, binding constants, thermodynamics; settings: for Kd: Ka binding constant; for ΔH / ΔS: van't Hoff, 298, 303, 310 K
# Method: Fluorescence measurements were performed using a model F-7000 fluorescence spectrometer (Hitachi, Tokyo, Japan). Elastase solution (2,000 μL in Tris–HCl buffer solution) was mixed with inhibitor solutions at different concentrations in a 1.0 cm quartz cell at 298, 303, and 310 K. The final concentrations of the four natural flavonoids and elastase were identical to those used to obtain the synchronous fluorescence spectra. The fluorescence emission spectra were recorded within the range of 285–500 nm, following excitation at 280 nm. The excitation and emission slit widths were set as 2.5 nm. The scan speed was 1,200 nm/min and the photomultiplier tube (PMT) voltage was 630 V. Fluorescence intensities were corrected for inner filter and dilution effects before analyzing the binding and quenching data.
# To determine the type of fluorescence quenching of the monomer interacting with PPE, the Stern-Volmer equation was used ([20]–[22]):
# F0/F=KSV[Q]+1=Kqτ0[Q]+1 (2)
# where F0 and F are the fluorescence intensities of PPE before and after the addition of different monomer solutions, respectively, Ksv is the quenching constant, [Q] is the concentration of different drugs, Kq is the quenching rate constant, τ0 is the average fluorescence lifetime of the substance in the absence of a quencher, and τ0 for the general biological macromolecule is 1 × 10^−8 s ([20], [23], [24]).
# According to the correction formula, the binding constant (Ka) and number of binding points (n) for the actions of the four monomers and PPE were calculated as follows ([25]–[27]):
# lgF0−F/F=nlgKa−nlg1/[Q0]−[P0]F0−F/F0 (3)
# where [ Q0 ] and [P0] are the drug and PPE concentrations, respectively.
# where K is the binding constant of the interaction, R is the gas constant, ΔH, ΔG, and ΔS are enthalpy, Gibbs energy, and entropy change.
# [3] = target: T1, porcine pancreatic elastase (PPE); assay: Fluorescence resonance energy transfer and binding distance; settings: [PPE] = [flavonoid] = 10 μM, 298 K
# Method: The PPE-quercetin, PPE-hyperoside, PPE-luteolin, and PPE-luteoloside binding distances were calculated according to the fluorescence resonance energy transfer theory ([31]–[33]):
# J=∑FD(λ)εA(λ)λ^4Δλ/∑FD(λ)Δλ (9)
# where k^2 is the dipole moment spatial orientation factor, usually taking the average 2/3; φ is the quantum efficiency of PPE, usually a quantum efficiency of Try residues of 0.15; n is the refractive index of the medium, representing the average of water and organic matter; J is the overlap integral of the absorption spectra and the fluorescence spectra; and ɛA(λ) is the molar extinction coefficient ([34]–[36]).
# [4] = target: T1, porcine pancreatic elastase (PPE); assay: UV-vis absorption spectra of PPE with flavonoid; settings: PPE 5 μM, flavonoid 15 μM, 298 K
# Method: The UV–vis absorption spectra of porcine pancreatic elastase PPE (2.5 mL) were recorded using a Cary 300 spectrometer (Agilent, San Diego, CA, United States) in a quartz cuvette with a path length of 10 mm. PPE concentration was fixed at 5 μM and the drug concentrations were 0 and 15 μM. Tris–HCl solution (pH 7.6) was used as the blank. The control group was a solution of four flavonoid monomers at a final concentration of 15 μM. The spectra were recorded in the range of 200–500 nm with a slit width of 2 nm at 298 K.
# [5] = target: T1, porcine pancreatic elastase (PPE); assay: Synchronous fluorescence spectra of PPE; settings: Δλ = 60 nm, PPE 2 μM, flavonoid 0-80 μM, 298 K
# Method: For the synchronous fluorescence spectroscopy experiments, the configuration of the solution preparation was the same as that used in experiment 2.3. Synchronous fluorescence spectra of PPE-quercetin, PPE-hyperoside, PPE-luteolin, and PPE-luteoloside were recorded at 298 K.
# [6] = target: T1, porcine pancreatic elastase (PPE); assay: FT-IR spectra of PPE-monomer complexes; settings: PPE 10 μM, flavonoid 100 μM
# Method: FTIR spectra were obtained using the potassium bromide (KBr) compression method with a Nicolet IS-50 spectrometer (Thermo Fisher Scientific, Waltham, MA, United States). […] The sheets were then dried at 45 °C and pressed. Blank background for the PBS buffer sheets. The spectral region between 4,000 and 500 cm^−1 was selected to examine changes in the secondary structure resulting from enzyme-drug interactions. All samples were assayed after drying and the experimental conditions were consistent for each group of assays.
# [7] = target: T1, porcine pancreatic elastase (PPE); assay: CD spectroscopy, secondary structure of PPE; settings: PPE 5 μM, flavonoid 2.5 μM, 298 K; for α-helix (%): PPE alone 7.50; for Random coil (%): PPE alone 41.00; for β-sheet (%): PPE alone 51.50
# Method: The CD spectra of PPE, PPE-quercetin, PPE-hyperoside, PPE-luteolin, and PPE-luteoloside were obtained using an MOS-500 CD spectrometer (Biologic Science Instruments, Seyssinet-Pariset, France). […] Set at a temperature of 298 K. The signal was recorded from 190 to 260 nm using a path length of 1 mm, acquisition duration of 0.5 s, and scanning step of 2 nm. The CD spectra were averaged after performing three scans and correcting for the background value of the phosphate buffer. All results were documented as CD ellipticity in degrees.
# [8] = target: elastase; parameters: method as in doi:10.19894/j.issn.1000-0518.210248; settings: elastase inhibition, earlier study ref 61; cited from earlier work
Structure (SMILES),IC50 [1] [µM],inhibition at 22.5 µM [1] [%],KSV Stern-Volmer quenching constant ([2]; 298 K),Kq quenching rate constant ([2]; 298 K),n number of binding sites ([2]; 298 K),KSV Stern-Volmer quenching constant ([2]; 303 K),Kq quenching rate constant ([2]; 303 K),n number of binding sites ([2]; 303 K),ΔG ([2]; 303 K) [kcal/mol],KSV Stern-Volmer quenching constant ([2]; 310 K),Kq quenching rate constant ([2]; 310 K),n number of binding sites ([2]; 310 K),ΔG ([2]; 310 K) [kcal/mol],ΔH [2] [kcal/mol],ΔS [2],R0 [3] [nm],binding distance r [3] [nm],amide I band of PPE after addition (from 1638.45) [6] [cm⁻¹],decrease of α-helical structure [7] [%],α-helix (%) [7] [%],other results
O=c1cc(-c2ccc(O)c(O)c2)oc2cc(O[C@@H]3O[C@H](CO)[C@@H](O)[C@H](O)[C@H]3O)cc(O)c12 [luteoloside],61.3,12.2,1.79 10^4 L•mol^−1,1.79 10^12 L•mol^−1•s^−1,0.95,1.66 10^4 L•mol^−1,1.66 10^12 L•mol^−1•s^−1,0.93,-5.92,1.57 10^4 L•mol^−1,1.57 10^12 L•mol^−1•s^−1,1.07,-6.042,-0.6989,72.107 J/(mol•K),1.99,2.71,1634.55,1.99,5.51,ΔG ([2]; 298 K): -5.834 kcal/mol; Kd ([2]; 298 K): 52.4 µM; Kd ([2]; 303 K): 53.8 µM; Kd ([2]; 310 K): 55.2 µM; blue shift of maximum absorption peak of PPE (275 nm) [4]: 8 nm; red shift of Trp synchronous fluorescence [5]: 1 nm; Random coil (%) [7]: 43.91%; β-sheet (%) [7]: 50.58%
O=c1cc(-c2ccc(O)c(O)c2)oc2cc(O)cc(O)c12 [luteolin],18.2,54.3,1.15 10^4 L•mol^−1,1.15 10^12 L•mol^−1•s^−1,0.97,1.04 10^4 L•mol^−1,1.04 10^12 L•mol^−1•s^−1,1.11,-6.511,0.98 10^4 L•mol^−1,0.98 10^12 L•mol^−1•s^−1,1.17,-6.52,-6.0327,−6.585 J/(mol•K),1.97,2.67,1632.53,0.96,6.54,Kd ([2]; 298 K): 82.6 µM; Kd ([2]; 303 K): 95.2 µM; Kd ([2]; 310 K): 102 µM; blue shift of maximum absorption peak of PPE (275 nm) [4]: 3 nm; red shift of Trp synchronous fluorescence [5]: 4 nm
CC(C)(C)C(=O)Oc1ccc(S(=O)(=O)Nc2ccccc2C(=O)NCC(=O)O)cc1 [sivelestat sodium],–,–,–,–,–,–,–,–,–,–,–,–,–,–,–,–,–,–,–,–,IC50 [8]: 9.98 µM
O=c1c(O)c(-c2ccc(O)c(O)c2)oc2cc(O)cc(O)c12 [quercetin],–,22.2,0.59 10^4 L•mol^−1,0.59 10^12 L•mol^−1•s^−1,1.13,0.58 10^4 L•mol^−1,0.58 10^12 L•mol^−1•s^−1,0.99,-5.208,0.52 10^4 L•mol^−1,0.52 10^12 L•mol^−1•s^−1,0.80,-5.284,-1.901,45.6521 J/(mol•K),1.91,2.82,1633.59,1.14,6.36,ΔG ([2]; 298 K): -5.153 kcal/mol; Random coil (%) [7]: 44.59%; β-sheet (%) [7]: 49.05%
O=c1c(O[C@@H]2O[C@H](CO)[C@H](O)[C@H](O)[C@H]2O)c(-c2ccc(O)c(O)c2)oc2cc(O)cc(O)c12 [hyperoside],31,41.1,5.47 10^4 L•mol^−1,5.47 10^12 L•mol^−1•s^−1,1.58,4.85 10^4 L•mol^−1,4.85 10^12 L•mol^−1•s^−1,1.56,-6.874,4.78 10^4 L•mol^−1,4.78 10^12 L•mol^−1•s^−1,1.35,-6.881,-6.5753,−4.108 J/(mol•K),1.86,2.40,1633.14,1.20,6.30,Kd ([2]; 298 K): 24.6 µM; Kd ([2]; 303 K): 29.6 µM; Kd ([2]; 310 K): 31.3 µM; blue shift of maximum absorption peak of PPE (275 nm) [4]: 4 nm; red shift of Trp synchronous fluorescence [5]: 7 nm; Random coil (%) [7]: 46.34%; β-sheet (%) [7]: 47.36%
